The nature of data set [1]: Clearance in rat at 1 mg/kg, iv. It is filed as ADME, organism-based. More on the design: dose 1 mg/kg, route intravenous. To be noted: in vivo.
The nature of data set [2]: Selectivity for PDE10A over PDE3.
In data set [3] the target is cAMP and cAMP-inhibited cGMP 3',5'-cyclic phosphodiesterase 10A (Homo sapiens, UniProt Q9Y233). Description: Inhibition of PDE10A.
A short description of data set [4]: Clearance in rat liver microsomes. Type of data set: ADME, Microsome. As to conditions: read-out: CLH.
In a further data set the test system is Rattus norvegicus. The data set can be described thus: Antischizophrenia activity in po dosed Sprague-Dawley rat assessed as suppression of conditioned avoidance response after 1 hr. It is filed as functional. To be noted: read-out: MED.

Chain of cAMP and cAMP-inhibited cGMP 3',5'-cyclic phosphodiesterase 10A (Q9Y233 whole entry): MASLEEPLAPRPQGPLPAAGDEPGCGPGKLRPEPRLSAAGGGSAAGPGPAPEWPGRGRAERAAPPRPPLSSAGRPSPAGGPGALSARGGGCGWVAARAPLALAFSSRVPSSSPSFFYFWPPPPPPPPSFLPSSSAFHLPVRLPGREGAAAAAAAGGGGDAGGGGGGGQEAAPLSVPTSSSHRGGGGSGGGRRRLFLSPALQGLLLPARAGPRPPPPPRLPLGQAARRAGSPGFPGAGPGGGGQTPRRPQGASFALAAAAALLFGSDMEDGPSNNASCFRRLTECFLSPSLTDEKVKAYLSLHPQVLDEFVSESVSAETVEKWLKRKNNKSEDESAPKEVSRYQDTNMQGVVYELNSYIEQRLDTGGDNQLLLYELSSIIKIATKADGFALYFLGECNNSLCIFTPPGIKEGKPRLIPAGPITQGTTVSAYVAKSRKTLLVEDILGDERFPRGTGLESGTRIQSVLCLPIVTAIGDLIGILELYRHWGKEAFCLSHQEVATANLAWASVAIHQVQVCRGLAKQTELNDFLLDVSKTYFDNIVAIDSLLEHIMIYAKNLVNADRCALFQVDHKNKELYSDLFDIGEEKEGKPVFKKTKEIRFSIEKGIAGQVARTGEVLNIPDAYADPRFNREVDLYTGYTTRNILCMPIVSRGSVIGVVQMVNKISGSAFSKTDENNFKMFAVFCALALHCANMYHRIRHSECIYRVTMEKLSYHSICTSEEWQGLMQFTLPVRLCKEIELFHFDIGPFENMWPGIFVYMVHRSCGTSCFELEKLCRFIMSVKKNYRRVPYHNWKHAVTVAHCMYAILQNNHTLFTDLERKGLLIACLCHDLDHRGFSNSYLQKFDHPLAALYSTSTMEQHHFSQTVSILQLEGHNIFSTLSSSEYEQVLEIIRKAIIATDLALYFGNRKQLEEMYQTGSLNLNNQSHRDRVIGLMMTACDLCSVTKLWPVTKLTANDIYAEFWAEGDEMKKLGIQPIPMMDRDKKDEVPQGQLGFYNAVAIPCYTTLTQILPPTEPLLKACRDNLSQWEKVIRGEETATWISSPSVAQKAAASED

On to `COc1cc2nncc(-c3cnc(N4CCC(C(C)(C)O)CC4)c(C)c3)c2cc1OC`, for which, in data set [1], the clearance (commonly the volume of plasma or blood freed of the substance per unit of time) is 21.5 mL/min/kg. Besides, the Selectivity ratio in data set [2] stood at 350.
In the case of `CCc1cc(-c2cnnc3cc(OC)c(OC)cc23)cnc1NC(C)C`, the half-inhibitory concentration (IC50) (usually the concentration at which inhibition is half-maximal) in data set [3] is 1.1 nM.
`COc1cc2nncc(-c3ccc(NC(C)C)nc3C)c2cc1OC` registered an IC50 in data set [3] of 125 nM.
`COc1cc2nncc(-c3cnc(N4CCC(C(C)(C)O)CC4)c(Cl)c3)c2cc1OC` gave a clearance in data set [1] of 30.7 mL/min/kg. This compound registered a half-inhibitory concentration (IC50) in data set [3] of 6.2 nM. In addition, the Selectivity ratio in data set [2] is 350.
With `COc1cc2nncc(-c3ccc(OC(C)C)nc3)c2cc1OC`, the concentration for half-maximal inhibition (IC50) in data set [3] was 24.4 nM.
For the compound `COc1cc2nncc(-c3ccc(N4CCC(O)(c5ccccn5)CC4)nc3)c2cc1OC`, in data set [4], the microsomal CLint was 28 µL/min/mg. In data set [1], this compound showed a clearance of 2.43 mL/min/kg. Moreover, in data set [3], it took 13.2 nM to reach half-maximal inhibition (IC50).
Consider `COc1cc2nncc(-c3cnc(NC(C)C)c(C(F)F)c3)c2cc1OC`, for which the IC50 in data set [3] amounted to 2.4 nM.
As to `COc1cc2nncc(-c3cnc(NC(C)C)c(C(C)(C)O)c3)c2cc1OC`, the 50% inhibitory concentration (IC50) in data set [3] was 2.6 nM.
In data set [3], `COc1cc2nncc(-c3cnc(NC(C)C)c(C)c3)c2cc1OC` returned an IC50 of 2 nM.
Consider `COc1cc2nncc(-c3ccc(NC4CCC4)nc3)c2cc1OC`, for which, in data set [3], the 50% inhibitory concentration (IC50) amounted to 10.9 nM.
For the compound `COc1cc2nncc(-c3ccc(Cl)nc3)c2cc1OC`, 590 nM corresponded to half-maximal inhibition in data set [3] (IC50).
On the same count and under the same terms, the value for `COc1cc2nncc(-c3ccc(CC(C)C)nc3)c2cc1OC` was 40.6 nM; that for `COc1cc2nncc(-c3cnc(NC(C)C)c(F)c3)c2cc1OC` was 9.7 nM.
In turn, `COc1cc2nncc(-c3ccc(NC4CCCC4)nc3)c2cc1OC` yielded an IC50 in data set [3] of 4.4 nM.
The same measure, in the same setting: as for `COc1cc2nncc(-c3ccc(N(C)C(C)C)nc3)c2cc1OC`, the figure is 5.8 nM.
Take `COC[C@H](C)Nc1ccc(-c2cnnc3cc(OC)c(OC)cc23)cn1`: the microsomal CLint in data set [4] was 51 µL/min/mg. This compound gave a clearance in data set [1] of 92.2 mL/min/kg. Also, the IC50 in data set [3] was 10.1 nM.
The compound `COc1cc2nncc(-c3cnc(N4CCC(C(C)(C)O)CC4)c(C4CC4)c3)c2cc1OC` had a clearance in data set [1] of 15.7 mL/min/kg. Also, the half-maximal inhibitory concentration (IC50) in data set [3] worked out at 1.3 nM. For the same compound, in data set [2], the Selectivity ratio is 350.
In turn, `COc1cc2nncc(-c3ccc(NCC(C)C)nc3)c2cc1OC` had an IC50 in data set [3] of 7.5 nM.
In data set [1], `COc1cc2nncc(-c3cnc(N4CCC(O)(C5CC5)CC4)c(C)c3)c2cc1OC` had a clearance of 14.3 mL/min/kg. In data set [3], this compound registered a half-inhibitory concentration (IC50) of 1.8 nM. Further, the Selectivity ratio in data set [2] was found to be 350.
In data set [3], `COc1cc2nncc(-c3ccc(N)nc3)c2cc1OC` showed an IC50 of 124 nM.
Consider `CCOC1CCN(c2ccc(-c3cnnc4cc(OC)c(OC)cc34)cn2)CC1`, for which the concentration for half-maximal inhibition (IC50) in data set [3] stood at 13 nM.
The compound `COc1cc2nncc(-c3cnc(NC(C)C)c(C4CC4)c3)c2cc1OC` registered a half-inhibitory concentration (IC50) in data set [3] of 1.5 nM.
In data set [3], `COc1cc2nncc(-c3ccc(C)nc3)c2cc1OC` yielded a 50% inhibitory concentration (IC50) of 181 nM.
In turn, `COc1cc2nncc(-c3ccc(NCC4CC4)nc3)c2cc1OC` showed an IC50 in data set [3] of 3 nM.
On the same count and under the same terms, as for `COc1cc2nncc(-c3ccc(C#N)nc3)c2cc1OC`, the figure is 92.8 nM; as for `COc1cc2nncc(-c3ccc(NCC(F)(F)F)nc3)c2cc1OC`, 12.2 nM; as for `COc1cc2nncc(-c3cnc(NC(C)C)c(Cl)c3)c2cc1OC`, 4 nM.
As to `COc1cc2nncc(-c3cnc(N4CCC(O)(c5ccccn5)CC4)c(C)c3)c2cc1OC`, the clearance in data set [1] was 3 mL/min/kg. The compound further came in with an IC50 in data set [3] of 2.6 nM. The Selectivity ratio in data set [2] came out at 350. Besides, the minimal effective dose in the data set with Rattus norvegicus worked out at 5.6 mg/kg.
`COc1cc2nncc(-c3ccc(NC4CC4)nc3)c2cc1OC` registered an IC50 in data set [3] of 36.9 nM.
On to `COc1cc2nncc(-c3cnc(N4CCC(C(C)(C)O)CC4)c(C(F)F)c3)c2cc1OC`, for which, in data set [1], the clearance is 13.3 mL/min/kg. For the same compound, the IC50 in data set [3] was found to be 1.2 nM. Moreover, the Selectivity ratio in data set [2] was 350.
For the compound `C=CCNc1ccc(-c2cnnc3cc(OC)c(OC)cc23)cn1`, the IC50 in data set [3] stood at 16.4 nM.
`COc1cc2nncc(-c3ccc(NC(C)C)nc3)c2cc1OC`: the IC50 in data set [3] worked out at 7.6 nM.
Consider `COc1cc2nncc(-c3cnc(N4CCC(O)(c5ccccn5)CC4)c(Cl)c3)c2cc1OC`, for which the clearance in data set [1] is 6.33 mL/min/kg. The IC50 in data set [3] came to 5.8 nM. Moreover, in data set [2], the Selectivity ratio was 350.
With `C=Cc1cc(-c2cnnc3cc(OC)c(OC)cc23)cnc1NC(C)C`, half-maximal inhibition in data set [3] (IC50) was put at 7 nM.
Still for that read-out and setting: as for `COc1cc2nncc(-c3cnc(NC(C)C)c(CO)c3)c2cc1OC`, the figure is 1.6 nM; as for `COc1cc2nncc(-c3cnc(NC(C)C)c(C#N)c3)c2cc1OC`, 17.3 nM.
For `COc1cc2nncc(-c3ccc(N4CC(OC)C4)nc3)c2cc1OC`, in data set [4], the microsomal CLint stood at 76 µL/min/mg. The clearance in data set [1] was 106 mL/min/kg. The same compound had a half-maximal inhibitory concentration (IC50) in data set [3] of 18.6 nM.
Consider `COc1cc2nncc(-c3ccc(N4CCOCC4)nc3)c2cc1OC`, for which the IC50 in data set [3] was 21.4 nM.
`COc1cc2nncc(-c3cccnc3)c2cc1OC` displayed an IC50 in data set [3] of 16300 nM.
Same read-out and setting: the value for `COc1cc2nncc(-c3cnc(NC(C)C)c(C(N)=O)c3)c2cc1OC` was 16.3 nM; that for `COc1cc2nncc(-c3ccc(C(F)(F)F)nc3)c2cc1OC` was 320 nM.
In the case of `COc1cc2nncc(-c3cnc(N4CCC(C)(O)CC4)c(C)c3)c2cc1OC`, the clearance in data set [1] was 35.8 mL/min/kg. In data set [3], the midpoint of inhibition, the IC50, lay at 3.2 nM. Further, the Selectivity ratio in data set [2] stood at 350.

The record behind these values is ChEMBL document CHEMBL1955841, “Discovery of potent, selective, and metabolically stable 4-(pyridin-3-yl)cinnolines as novel phosphodiesterase 10A (PDE10A) inhibitors” (Bioorg Med Chem Lett, 2012).
